The results in this text go back to ChEMBL document CHEMBL3132855, “Synthesis and antiviral evaluation of 4-(1,2,3-triazol-1-yl)thymidines” (Medchemcomm, 2014).

The structures appear in SMILES notation. Active and inactive are the calls of the source. The rule behind the calls is not given here.

Broadly, the inhibition is the change of the read-out against control, counted positive when it falls.

Data set [1] relates to Hepatitis C virus. In words: Antiviral activity against HCV1b infected in human HuH-7 cells assessed as inhibition of viral replication at 10 uM after 3 days by luciferase assay. The class given is functional, organism-based. Conditions: Hepacivirus hominis, genotype 1b.
For data set [2], the system named is West Nile virus. Put plainly: Antiviral activity against West Nile virus infected in baby hamster BHK-WII RepRen1B cells assessed as inhibition of viral replication at 10 uM after 3 days by luciferase assay. It is filed as functional, organism-based.
Data set [3] has as its system Influenza A virus. In words: Antiviral activity against Influenza A/WSN/33 virus infected in MDCK cells assessed as inhibition of virus-induced cytopathic effect at 10 uM after 5 days by neutral red assay. The class given is functional. The note with it: A/WSN/1933(H1N1), 120 h. For orientation: Cytopathic effects are the visible damage that an infection or toxin causes in cultured cells.

For data set [4], the system named is Influenza A virus. Put plainly: Antiviral activity against Influenza A/WSN/33 virus infected in human A549 cells assessed as inhibition of virus-induced cytopathic effect at 10 uM after 5 days by neutral red assay. The class given is functional. The note with it: A/WSN/1933(H1N1), A549, 120 h.
Data set [5] is described as follows: Cytotoxicity against human CEM-SS cells assessed as cell viability at 10 uM after 6 days by MTS assay. It is filed as cell-based. The note with it: read-out: Activity.
Data set [6] has as its system Human immunodeficiency virus 1. Put plainly: Antiviral activity against HIV1 3B infected in human CEM-SS cells assessed as inhibition of virus-induced cytopathic effect at 10 uM after 6 days by MTS assay. It is filed as functional. Conditions: Human immunodeficiency virus 1, 3B, 144 h.

With `Cc1cn([C@H]2C[C@H](O)[C@](CO)(n3cc(-c4ccc(Br)cc4)nn3)O2)c(=O)[nH]c1=O`, the inhibition entry in data set [1] and in data set [2] was “inactive” throughout. Moreover, the inhibition at 10 µM turned out to be 4% in data set [3], 18% in data set [4] and 60% in data set [6]. The viability at 144 h, 10 µM in data set [5] stood at 100%.

On to `Cc1cn([C@H]2C[C@H](O)[C@](CO)(n3cc(CSc4ccccc4)nn3)O2)c(=O)[nH]c1=O`, for which the inhibition result in data set [1] and in data set [2] was “inactive” throughout. Further, the inhibition at 10 µM was determined as 3.3% in data set [4] and 20% in data set [6]. The viability at 144 h, 10 µM in data set [5] was 99%.

In the case of `Cc1cn([C@H]2C[C@H](O)[C@](CO)(n3cc(C4CCCCC4)nn3)O2)c(=O)[nH]c1=O`, the inhibition result in data set [1] and in data set [2] was “inactive” in each case. The figures for the inhibition at 10 µM in data set [4] and in data set [6] were 2.2% and 0%, respectively. Also, the viability at 144 h, 10 µM in data set [5] came out at 96%.

Turning to `COc1ccc2cc(-c3cn([C@]4(CO)O[C@@H](n5cc(C)c(=O)[nH]c5=O)C[C@@H]4O)nn3)ccc2c1`, the inhibition result in data set [1] and in data set [2] was “inactive” each time. In addition, the inhibition at 10 µM in data set [4] was 0%; in data set [6], 18%. The viability at 144 h, 10 µM in data set [5] turned out to be 95%.

Regarding `Cc1cn([C@H]2C[C@H](O)[C@](CO)(n3cc(C4CC4)nn3)O2)c(=O)[nH]c1=O`, the inhibition result in data set [1] and in data set [2] was “inactive” in each case. Further, the inhibition at 10 µM in data set [4] and in data set [6] was 0% each time. Also, the viability at 144 h, 10 µM in data set [5] was determined as 99%.

On to `Cc1cn([C@H]2C[C@H](O)[C@](CO)(n3cc(COc4ccc5ccccc5c4)nn3)O2)c(=O)[nH]c1=O`, for which the inhibition result in data set [1] and in data set [2] was “inactive” in each case. For the same molecule, the inhibition at 10 µM in data set [3] worked out at 1%; in data set [4] it was 16%; in data set [6] it was 0%. In addition, the viability at 144 h, 10 µM in data set [5] came out at 93%.

As for `Cc1cn([C@H]2C[C@H](O)[C@](CO)(n3cc(-c4ccc(N(C)C)cc4)nn3)O2)c(=O)[nH]c1=O`, the inhibition result in data set [1] and in data set [2] was “inactive” in each case. Further, the inhibition at 10 µM came out at 1% in data set [3], 21% in data set [4] and 12% in data set [6]. In addition, the viability at 144 h, 10 µM in data set [5] was 100%.

In the case of `Cc1cn([C@H]2C[C@H](O)[C@](CO)(n3cc(-c4ccsc4)nn3)O2)c(=O)[nH]c1=O`, the inhibition result in data set [1] and in data set [2] was “inactive” throughout. For the same molecule, the inhibition at 10 µM came to 0% in data set [4] and 19% in data set [6]. Moreover, the viability at 144 h, 10 µM in data set [5] was determined as 100%.

As for `CCOC(=O)C(Cc1ccc(OCc2cn([C@]3(CO)O[C@@H](n4cc(C)c(=O)[nH]c4=O)C[C@@H]3O)nn2)cc1)NC(=O)OC(C)(C)C` (stereo partly specified), the inhibition entry in data set [1] and in data set [2] was “inactive” in each case. Moreover, the inhibition at 10 µM in data set [4] and in data set [6] was 0% in each case. Moreover, the viability at 144 h, 10 µM in data set [5] amounted to 97%.

As to `Cc1cn([C@H]2C[C@H](O)[C@](CO)(n3cc(COc4ccccc4)nn3)O2)c(=O)[nH]c1=O`, the inhibition result in data set [1] and in data set [2] was “inactive” throughout. The inhibition at 10 µM in data set [4] amounted to 10%; in data set [6] it was 0%. For the same molecule, the viability at 144 h, 10 µM in data set [5] is 97%.

Consider `COc1ccc(-c2cn([C@]3(CO)O[C@@H](n4cc(C)c(=O)[nH]c4=O)C[C@@H]3O)nn2)cc1`, for which the inhibition entry in data set [1] and in data set [2] was “inactive” throughout. Also, the inhibition at 10 µM turned out to be 1% in data set [3], 19% in data set [4] and 0% in data set [6]. For the same molecule, in data set [5], the viability at 144 h, 10 µM is 84%.

Turning to `Cc1cn([C@H]2C[C@H](O)[C@](CO)(n3cc(-c4ccc(-c5ccccc5)cc4)nn3)O2)c(=O)[nH]c1=O`, the inhibition entry in data set [1] and in data set [2] was “inactive” throughout. For the same molecule, the inhibition at 10 µM was determined as 1.7% in data set [4] and 31% in data set [6]. The viability at 144 h, 10 µM in data set [5] amounted to 80%.

`Cc1cn([C@H]2C[C@H](O)[C@](CO)(n3cc(-c4ccc(F)cc4)nn3)O2)c(=O)[nH]c1=O`: the inhibition entry in data set [1] and in data set [2] was “inactive” in each case. Moreover, the inhibition at 10 µM in data set [4] and in data set [6] was 0% throughout. Also, the viability at 144 h, 10 µM in data set [5] was found to be 95%.

Consider `Cc1cn([C@H]2C[C@H](O)[C@](CO)(n3cc(C(C)O)nn3)O2)c(=O)[nH]c1=O` (stereo partly specified), for which the inhibition result in data set [1] and in data set [2] was “inactive” throughout. Further, the inhibition at 10 µM in data set [4] stood at 0%; in data set [6], 8%. The viability at 144 h, 10 µM in data set [5] is 100%.

On to `Cc1cn([C@H]2C[C@H](O)[C@](CO)(n3cc(-c4cc5ccccc5c5ccccc45)nn3)O2)c(=O)[nH]c1=O`, for which the inhibition entry in data set [1] and in data set [2] was “inactive” in each case. Besides, the inhibition at 10 µM in data set [4] and in data set [6] was 0% each time. The viability at 144 h, 10 µM in data set [5] amounted to 86%.

For `Cc1cn([C@H]2C[C@H](O)[C@](CO)(n3cc(-c4ccccc4)nn3)O2)c(=O)[nH]c1=O`, the inhibition result in data set [1] and in data set [2] was “inactive” each time. The results for the inhibition at 10 µM in data set [4] and in data set [6] were 0% and 62%, respectively. Moreover, the viability at 144 h, 10 µM in data set [5] came to 94%.

`Cc1cn([C@H]2C[C@H](O)[C@](CO)(n3cc(CO)nn3)O2)c(=O)[nH]c1=O`: the inhibition entry in data set [1] and in data set [2] was “inactive” in each case. In addition, the inhibition at 10 µM was 0% in data set [4] and 2% in data set [6]. For the same molecule, the viability at 144 h, 10 µM in data set [5] came to 100%.

As for `CC(=O)Nc1ccc(-c2cn([C@]3(CO)O[C@@H](n4cc(C)c(=O)[nH]c4=O)C[C@@H]3O)nn2)cc1`, the inhibition entry in data set [1] and in data set [2] was “inactive” throughout. Also, the inhibition at 10 µM in data set [3] turned out to be 3%; in data set [4], 54%; in data set [6], 0%. In addition, in data set [5], the viability at 144 h, 10 µM turned out to be 98%.

On to `Cc1cn([C@H]2C[C@H](O)[C@](CO)(n3cc(C(O)c4ccccc4)nn3)O2)c(=O)[nH]c1=O` (stereo partly specified), for which the inhibition entry in data set [1] and in data set [2] was “inactive” throughout. Further, the figures for the inhibition at 10 µM in data set [4] and in data set [6] were 5% and 0%, respectively. Moreover, the viability at 144 h, 10 µM in data set [5] amounted to 100%.

`Cc1cn([C@H]2C[C@H](O)[C@](CO)(n3cc(C4CCCC4)nn3)O2)c(=O)[nH]c1=O`: the inhibition entry in data set [1] and in data set [2] was “inactive” in each case. Also, the results for the inhibition at 10 µM in data set [4] and in data set [6] were 3.1% and 5%, respectively. For the same molecule, the viability at 144 h, 10 µM in data set [5] is 100%.

As to `Cc1ccc(-c2cn([C@]3(CO)O[C@@H](n4cc(C)c(=O)[nH]c4=O)C[C@@H]3O)nn2)cc1`, the inhibition result in data set [1] and in data set [2] was “inactive” each time. Besides, the inhibition at 10 µM in data set [4] and in data set [6] was 0% throughout. Moreover, in data set [5], the viability at 144 h, 10 µM came to 99%.

Consider `Cc1cn([C@H]2C[C@H](O)[C@](CO)(n3cc(-c4ccc(Oc5ccccc5)cc4)nn3)O2)c(=O)[nH]c1=O`, for which the inhibition result in data set [1] and in data set [2] was “inactive” each time. Moreover, the inhibition at 10 µM came out at 1% in data set [3], 48% in data set [4] and 1% in data set [6]. The viability at 144 h, 10 µM in data set [5] was determined as 95%.

Consider `COc1ccc2c(-c3cn([C@]4(CO)O[C@@H](n5cc(C)c(=O)[nH]c5=O)C[C@@H]4O)nn3)cccc2c1`, for which the inhibition result in data set [1] and in data set [2] was “inactive” each time. For the same molecule, the inhibition at 10 µM was 5.3% in data set [4] and 0% in data set [6]. Besides, the viability at 144 h, 10 µM in data set [5] is 95%.

As for `Cc1cn([C@H]2C[C@H](O)[C@](CO)(n3cc(CON4C(=O)c5ccccc5C4=O)nn3)O2)c(=O)[nH]c1=O`, the inhibition result in data set [1] and in data set [2] was “inactive” in each case. Also, the results for the inhibition at 10 µM in data set [4] and in data set [6] were 3.7% and 1%, respectively. Besides, the viability at 144 h, 10 µM in data set [5] was 99%.
